≈ marks a conversion by molar mass, not a printed value. Like-named read-outs stand apart in the source and are kept apart here.
Tests used:
Assay type in all cases: physicochemical
[1] = Equilibrium solubility determined by UPLC
[2] = Stability of API, SD2 powder and 10 mg SD2 tablets in HDPE bottles; set-up: key to Appearance: “T1”: white powder; “T2”: white or off white round tablet; details: Table 8
Method: Stability of the API, SD2 as well as the tablet (10 mg strength) comprising SD2 was tested by placing the tablets in HDPE bottles under stressed conditions as described in column 2 of Table 7.

[3] = Stability of API, SD1 powder and 10 mg SD1 tablets in HDPE bottles; set-up: key to Appearance: “T1”: white powder; “T2”: white or off white round tablet; details: Table 6
Method: Stability of the API, SD1 powder as well as the tablets (10 mg strength) comprising SD1 was tested by placing the tablets in High-density polyethylene (HDPE) bottles under stressed conditions as described in column 2 of Table 6.

[4] = Approximate solubility screening in organic solvents at ambient temperature; details: organic solvent or mixture, thermodynamic from solid, read-out: S (solubility)
Description: To screen appropriate solvent for spray drying, approximate solubility of starting material was estimated in different organic solvents at ambient temperature.

[5] = In vitro 2-phase (SGF/FaSSIF) miniaturized dissolution of solid dispersion films; details: SGF-FaSSIF, 37° C.
Method: In vitro, 2-phase (SGF/FaSSIF) miniaturized dissolution was performed, where the amount of dissolved API was monitored as a function of time. Before starting the dissolution assay, the films were stored at room temperature, for one day for the first screen and for 3 days for the second screen. By doing so, most of the residual solvent was evaporated. Actual dissolution experiments were performed in 96 1 mL glass vials using the Hamilton STAR plus liquid handling platform for both sampling and sample preparation. Before addition to the films, the media was preheated to 37° C. 300 μL of preheated SGF (37° C., pH 1.3) was then added to the solid dispersions. After 15 minutes of incubation in SGF, 600 μL of preheated concentrated FaSSIF (37° C., pH 10.5) was added to the samples. The addition of this concentrated FaSSIF to SGF results in a medium with a similar composition to the typical FaSSIF medium used in 1-phase dissolution studies. At predetermined time intervals (11, 24, 34, 49, 79, 139 minutes), aliquots were withdrawn from the dissolution media and filtered through a 0.45 μm GHP membrane filter. Subsequently, the filtered solutions were quantitatively diluted with N-methyl pyrrolidone (NMP) to prevent possible precipitation. The amount of dissolved API was determined by UPLC/UV-Vis analysis. Experiments were performed in duplicate for each formulation per screen. […]

COc1cc(NC(C(=O)c2c[nH]c3ccc(OC(F)(F)F)cc23)c2ccc(Cl)cc2OC)cc(S(C)(=O)=O)c1 (centres unmarked) [API]
solubility thermodynamic ([1]; MeOH/dichloromethane (1/1, organic solvent or mixture, thermodynamic from solid), MeOH/dichloromethane (DCM) (1/1, v/v)): 317 mg/mL (≈ 544 mM) | solubility thermodynamic ([1]; organic solvent or mixture, thermodynamic from solid, MeOH): 42 mg/mL (≈ 72 mM) | Appearance ([2]; 40° C./75% RH (closed), 1 M): T1 | Purity (%) ([2]; 40° C./75% RH (closed), 1 M): 98.96% | Total impurity (%) ([2]; 40° C./75% RH (closed), 1 M): 1.04% | Appearance ([2]; 40° C./75% RH (closed), 2 M): T1 | Purity (%) ([2]; 40° C./75% RH (closed), 2 M): 98.94% | Total impurity (%) ([2]; 40° C./75% RH (closed), 2 M): 1.05% | Appearance ([2]; 40° C./75% RH (closed), 2 W): T1 | Purity (%) ([2]; 40° C./75% RH (closed), 2 W): 98.95% | Total impurity (%) ([2]; 40° C./75% RH (closed), 2 W): 1.05% | Appearance ([2]; 40° C./75% RH (closed), 3 M): T1 | Purity (%) ([2]; 40° C./75% RH (closed), 3 M): 98.95% | Total impurity (%) ([2]; 40° C./75% RH (closed), 3 M): 1.05% | Appearance ([2]; 40° C./75% RH (open), 1 M): T1 | Purity (%) ([2]; 40° C./75% RH (open), 1 M): 98.94% | Total impurity (%) ([2]; 40° C./75% RH (open), 1 M): 1.04% | Appearance ([2]; 40° C./75% RH (open), 2 M): T1 | Purity (%) ([2]; 40° C./75% RH (open), 2 M): 98.96% | Total impurity (%) ([2]; 40° C./75% RH (open), 2 M): 1.04% | Appearance ([2]; 40° C./75% RH (open), 2 W): T1 | Purity (%) ([2]; 40° C./75% RH (open), 2 W): 98.95% | Total impurity (%) ([2]; 40° C./75% RH (open), 2 W): 1.06% | Appearance ([2]; 40° C./75% RH (open), 3 M): T1 | Purity (%) ([2]; 40° C./75% RH (open), 3 M): 98.96% | Total impurity (%) ([2]; 40° C./75% RH (open), 3 M): 1.05% | Appearance ([3]; 40° C./75% RH (closed), 1 M): T1 | Purity (%) ([3]; 40° C./75% RH (closed), 1 M): 98.96% | Total impurity (%) ([3]; 40° C./75% RH (closed), 1 M): 1.04% | Appearance ([3]; 40° C./75% RH (closed), 2 M): T1 | Purity (%) ([3]; 40° C./75% RH (closed), 2 M): 98.94% | Total impurity (%) ([3]; 40° C./75% RH (closed), 2 M): 1.06% | Appearance ([3]; 40° C./75% RH (closed), 2 W): T1 | Purity (%) ([3]; 40° C./75% RH (closed), 2 W): 98.95% | Total impurity (%) ([3]; 40° C./75% RH (closed), 2 W): 1.05% | Appearance ([3]; 40° C./75% RH (closed), 3 M): T1 | Purity (%) ([3]; 40° C./75% RH (closed), 3 M): 98.95% | Total impurity (%) ([3]; 40° C./75% RH (closed), 3 M): 1.05% | Appearance ([3]; 40° C./75% RH (open), 1 M): T1 | Purity (%) ([3]; 40° C./75% RH (open), 1 M): 98.94% | Total impurity (%) ([3]; 40° C./75% RH (open), 1 M): 1.06% | Appearance ([3]; 40° C./75% RH (open), 2 M): T1 | Purity (%) ([3]; 40° C./75% RH (open), 2 M): 98.96% | Total impurity (%) ([3]; 40° C./75% RH (open), 2 M): 1.04% | Appearance ([3]; 40° C./75% RH (open), 2 W): T1 | Purity (%) ([3]; 40° C./75% RH (open), 2 W): 98.95% | Total impurity (%) ([3]; 40° C./75% RH (open), 2 W): 1.05% | Appearance ([3]; 40° C./75% RH (open), 3 M): T1 | Purity (%) ([3]; 40° C./75% RH (open), 3 M): 98.96% | Total impurity (%) ([3]; 40° C./75% RH (open), 3 M): 1.04% | solubility ([4]; Acetone/EtOH (1/1, v/v)): > 100 mg/mL | solubility ([4]; Acetone/EtOH (2/1, v/v)): > 100 mg/mL | solubility ([4]; Acetone/H2O (9/1, v/v)): > 100 mg/mL | solubility ([4]; Acetone/MeOH (2/1, v/v)): > 100 mg/mL | solubility ([4]; EtOH/H2O (9/1, v/v), HPMC E5 added into co-solvent system directly): 10 to 12.5 mg/mL (≈ 17.2 to 21.4 mM) | solubility ([4]; MeOH): 42 mg/mL (≈ 72 mM) | solubility ([4]; MeOH/DCM (1/1, v/v)): > 100 mg/mL | final release of the total amount of API present in the films ([5]; first screen): approximately 9% | final release of the total amount of API present in the films ([5]; second screen): approximately 9%

From patent publication US20240000749A1, “SOLID FORMULATION” (Janssen Pharmaceuticals, Inc., priority 2020, published 2024)
